Measurements taken from ChEMBL document CHEMBL1201862, “PubChem BioAssay data set” (2004).
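Dose response: 5 concentrations. Exposure: 48 h. Format: 96-well plates. Endpoint: linear interpolation; highest concentration if not reached. Here, GI50 denotes the concentration required for 50% inhibition of growth.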 Calls of active or inactive are those of the source. Cut-off read from the data, not from the text of the source: active = GI50 up to about 1.1 µM and inactive = higher.

Tests used:
Experiment in all cases: NCI tumour cell line growth inhibition, 48 h
[1] = system: BT-549
[2] = system: SR
[3] = system: OVCAR-4
[4] = system: NCI-H23
[5] = system: SF-539
[6] = system: HCC 2998
[7] = system: CAKI-1
[8] = system: NCI-H226
[9] = system: MDA-MB-435
[10] = system: UACC-257
[11] = system: SN12C
[12] = system: HOP-92
[13] = system: SF-295
[14] = system: SK-MEL-5
[15] = system: NCI-H522
[16] = system: EKVX
[17] = system: OVCAR-5
[18] = system: SNB-19
[19] = system: HOP-62

Measured: GI50

COc1ccc(CCCCl)c(C2=NCCc3ccccc32)c1
inactive: [1] 33.3 µM | [2] 28.1 µM | [3] 45.1 µM | [4] 11.1 µM | [5] 35.8 µM | [6] 23.4 µM | [7] > 100 µM | [8] 31.7 µM | [9] 26.2 µM | [10] 34.7 µM | [11] 9.91 µM | [12] 71.1 µM | [13] 32.8 µM | [14] 9.59 µM | [15] 6.75 µM | [16] 37.7 µM | [17] > 100 µM | [18] 14.8 µM | [19] 33.4 µM

CC(=O)OC1C[C@@H](C)C2(C[C@H](O)c3ccoc3)C(=O)OC[C@]13C2CCC(O)C31CO1 (stereo partly specified)
inactive: [1] > 100 µM | [2] > 100 µM | [3] > 100 µM | [4] > 100 µM | [5] > 100 µM | [6] > 100 µM | [7] > 100 µM | [8] > 100 µM | [9] > 100 µM | [10] > 100 µM | [11] > 100 µM | [12] > 100 µM | [13] > 100 µM | [14] > 100 µM | [15] > 100 µM | [17] > 100 µM | [18] > 100 µM | [19] > 100 µM

N#CC12CNCC1CN=N2 (stereo unspecified)
inactive: [1] > 100 µM | [2] > 100 µM | [3] > 100 µM | [4] > 100 µM | [6] > 100 µM | [7] > 100 µM | [8] > 100 µM | [9] > 100 µM | [10] > 100 µM | [11] > 100 µM | [12] > 100 µM | [13] > 100 µM | [14] > 100 µM | [15] > 100 µM | [16] > 100 µM | [17] > 100 µM | [18] > 100 µM | [19] > 100 µM

COC(=O)C1=C(O)C(C(=O)OC)[C@]2(O)[C@H](C(=O)OC)[C@H]1C[C@@H](c1ccc(O)cc1)[C@H]2C(=O)OC (stereo partly specified)
inactive: [1] 26.2 µM | [2] 23.2 µM | [3] 36.4 µM | [4] 28.1 µM | [5] 30.3 µM | [6] 19.9 µM | [7] 21.2 µM | [8] 44.4 µM | [9] 18.7 µM | [10] 19.4 µM | [11] 17.7 µM | [12] 79.8 µM | [13] 22 µM | [14] 37.3 µM | [16] 32.3 µM | [17] 23.8 µM | [18] 30.2 µM | [19] 18 µM

O=C(C/N=C(\CN(c1ccccc1)c1ccccc1)Oc1c(Cl)cc(Cl)cc1Cl)N1c2ccccc2Sc2ccccc21
inactive: [1] 17.3 µM | [2] 35.2 µM | [3] 88.7 µM | [4] 40.2 µM | [5] > 100 µM | [6] 36.7 µM | [8] 24.4 µM | [9] 34.2 µM | [10] > 100 µM | [11] 47.8 µM | [12] 21.9 µM | [13] > 100 µM | [14] 21.4 µM | [15] 28.3 µM | [16] > 100 µM | [17] 30.4 µM | [18] > 100 µM | [19] > 100 µM

O=C1CSC2(CC(/C=C/c3ccccc3O)=NN2c2cccc(S(=O)(=O)O)c2)N1c1nc2ccccc2s1 (stereo unspecified)
inactive: [1] 24.9 µM | [2] 18.4 µM | [3] 22 µM | [4] 22.1 µM | [5] 16.3 µM | [6] 21.9 µM | [7] 28.3 µM | [8] 22.2 µM | [9] 21.4 µM | [10] 41.7 µM | [11] 24.8 µM | [12] 25.6 µM | [14] 25.9 µM | [15] 15.7 µM | [16] 48.1 µM | [17] 26.9 µM | [18] 53.7 µM

COC(=O)C1C(O)C(C)C(=O)C(C)/C=C\C=C(C)C(=O)Nc2c(C)c(OC(C)=O)c3c(c2O)C(=O)C(C)=C2OCOC(=C23)C(C)=CC(C)(O)C(O)C(C)C1O (stereo unspecified)
inactive: [1] 42 µM | [2] 30.3 µM | [4] 17.5 µM | [5] 47.4 µM | [6] 21 µM | [7] 44.2 µM | [8] 46.7 µM | [9] 39.2 µM | [10] 18.8 µM | [11] 31.4 µM | [12] 50.5 µM | [13] 62.2 µM | [14] 14.5 µM | [15] 43.5 µM | [16] 65.2 µM | [17] 29 µM | [18] > 100 µM | [19] > 100 µM

C=C1C(=O)O[C@H]2C1C[C@@H](OC(C)=O)/C(C)=C/CC[C@@]1(C)O[C@H]21 (stereo partly specified)
inactive: [1] 5.92 µM | [2] 3.38 µM | [3] 13 µM | [4] 15.1 µM | [6] 13 µM | [7] 9.18 µM | [9] 22.4 µM | [10] 1.34 µM | [11] 14.3 µM | [12] 16 µM | [13] 21.1 µM | [14] 5.53 µM | [15] 2.26 µM | [16] 17.2 µM | [17] 17.6 µM | [18] 26 µM | [19] 17.6 µM

CC(C)(C)NC(=O)C12C3C4C1C1C2C3C41C(=O)NC(C)(C)C (stereo unspecified)
inactive: [1] > 100 µM | [2] 45.6 µM | [3] > 100 µM | [4] > 100 µM | [5] > 100 µM | [6] > 100 µM | [7] > 100 µM | [9] > 100 µM | [10] > 100 µM | [11] > 100 µM | [12] 15.1 µM | [13] 80 µM | [14] > 100 µM | [15] > 100 µM | [16] > 100 µM | [17] > 100 µM | [18] 47.8 µM | [19] 58.9 µM

CC1OC2OC3C(OCC(O)C3O)OC(=O)[C@]34CCC(C)(C)CC3C3=CCC5[C@@]6(C)C[C@H](O)[C@H](OC7OC(CO)C(O)C(O)C7OC7OC(COC(=O)CC(C)(O)CC(=O)OC1C(O)C2O)C(O)C(O)C7O)[C@@](C)(CO)C6CC[C@@]5(C)[C@]3(C)CC4 (stereo partly specified)
inactive: [1] 1.5 µM | [2] 1.6 µM | [3] 1.51 µM | [4] 1.64 µM | [5] 2.56 µM | [6] 1.32 µM | [7] 1.45 µM | [8] 2.48 µM | [9] 1.57 µM | [10] 1.43 µM | [11] 1.96 µM | [12] 1.54 µM | [13] 1.78 µM | [14] 1.21 µM | [15] 1.64 µM | [17] 1.61 µM | [18] 1.68 µM | [19] 1.44 µM

NS(=O)(=O)c1ccc(Nc2c3ccccc3nc3c(C(=O)NCCCN(CCO)CCO)cccc23)cc1
inactive: [1] 20.4 µM | [2] 12.8 µM | [3] 31.3 µM | [4] 23.4 µM | [6] 17.7 µM | [7] > 100 µM | [9] 19.6 µM | [10] 31 µM | [11] 16.4 µM | [12] 26.3 µM | [13] 36.2 µM | [14] 14.8 µM | [15] 18.2 µM | [16] 61.5 µM | [17] 24.1 µM | [18] 15.2 µM | [19] 24.8 µM
